Experiment [1] has as its system photoreceptor precursor cells (PPCs). The experiment is described as follows: Survival of AAGP-pretreated photoreceptor precursor cells after subretinal transplantation into rabbits with retinal degeneration. In kind it is in vivo, Rabbit (Oryctolagus cuniculus). The conditions noted are these: PPCs pre-treated in vitro 24 hours with 4 mg/mL; 6 months post subretinal transplantation; cyclosporine-A discontinued two weeks post transplantation; qualitative visual examination of flatmounts. How it is done: The objective of this study was to determine the effect of 24-hour pretreatment with anti-aging glycoprotein (AAGP™) at 4 mg/mL on the long-term (6 months) survival and functional activity of photoreceptor precursor cells (PPCs) following their subretinal transplantation into the eye of rabbits with retinal degeneration.
PPCs were generated in vitro from pluripotent human embryonic stem cells (hESCs) and incubated for 24 hours in media alone (control group) or media containing 4 mg/mL AAGP™ Following incubation, treated and untreated PPCs were labeled and injected into the subretinal space of the eye of immunosuppressed rabbits with induced retinal degeneration (4-5 rabbits/group). Animals were euthanized 6 month later, retinas were collected, and cell survival was determined in excised retinal flatmounts by imaging with confocal laser scanning system. The functional activity of transplanted cells was assessed by immunostaining for synaptic (Ribeye and Bassoon) and photoreceptor markers (Arrestin and Blue Opsin).
Retinal degeneration was induced on Day 1 of the study. […]

The test system of experiment [2] is CD4+ T cells. The experiment is described as follows: Immunohistochemistry to detect CD4+ T cells in conjunctival epithelium of dry eye disease-induced mice. The class given is in vivo, mouse. The conditions noted are these: bilateral topical administration of 5%; for CD4+ T cells infiltration into the conjunctival epithelium: DS-induced mice, result in words. How it is done:
Enucleated mouse eyes with intact conjunctiva were suspended in optimal cutting temperature (OCT) compound and flash frozen in liquid nitrogen. Immunohistochemistry was performed on six-micrometer frozen sections to detect and count the number of cells in conjunctival epithelium that stained positively for CD4 (clone H129.9, 10 μg/mL; BD Biosciences® cat #553647), a biotinylated secondary antibody (BD Pharmingen® cat #559286), and NovaRED® peroxidase (Vector Laboratories® cat #SK-4800). Secondary antibody alone and anti-rat isotype (clone A110-2; BD Biosciences® cat #553992) controls were also examined. Positively stained cells were counted in the GC-rich area of the conjunctiva using image analysis software (Nikon NIS Elements® software) using a 10×objective. T-cell detection and quantification was performed on Arms 1, 2, 4, and 5 only. CD4+ T cells infiltration into the conjunctival epithelium is a primary clinical indicator of dry eye disease (DED), which is used here as a proxy to study immune cell infiltration into diseased tissue suffering from […].

[3] abbreviates: DS5 mice, conjunctival epithelium.

Structures are written as SMILES.

In the case of `C[C@H](NC(=O)[C@H](C)NC(=O)[C@@H](N)CCCCNC(=O)C(F)(F)C1(O)O[C@H](CO)[C@H](O)[C@H](O)[C@H]1O)C(=O)O.Cl` (stereo partly drawn) [AAGP™], in experiment [1], the “cell survival of transplanted PPCs” value is “substantial increase”. Moreover, in experiment [2] (setting [3]), the “T-Cell Density, 25% Percentile” value is listed as 0.3767; the “T-Cell Density, 75% Percentile” value stood at 0.7663; the “T-Cell Density, Maximum” value was determined as 1.152; the “T-Cell Density, Mean” value came to 0.5644. Moreover, in experiment [2] (setting [3]), the “T-Cell Density, Median” value is 0.4907 and the “T-Cell Density, Minimum” value turned out to be 0.2307. Further, the “CD4+ T cells infiltration into the conjunctival epithelium” value in experiment [2] is given as “suppresses T-cell response”. Moreover, in experiment [2] (listed as PKX-001), the “CD4+ T cells infiltration into the conjunctival epithelium” value is given as “significantly reduced”.

Values taken from patent US20230142705A1, “USE OF ANTI-AGING GLYCOPEPTIDES FOR INHIBITION OF IMMUNE REJECTION OF A GRAFT” (PROTOKINETIX INC., priority 2020, published 2023).
